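Interpolation was linear, between the two tested concentrations surrounding the appropriate level; five concentrations were tested over 48 hours in 96-well plates. GI50 marks 50% less growth. Definition used: TGI = concentration required for complete inhibition of growth.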

One test deals with MDA-MB-231 breast. The test can be described thus: DTP human tumour cell line panel, 48 h.
By TGI is commonly meant the concentration giving total growth inhibition. A higher TGI goes with lower sensitivity of the cells. `CCCC(=O)OC1CC(n2cc(F)c(=O)[nH]c2=O)OC1COP(=O)(OCC(Cl)(Cl)Cl)OCC(Cl)(Cl)Cl` (centres undefined) had a TGI greater than 100 µM.
In turn, `COc1cc(OC)cc(-c2cc(=O)c3c(OC)c(OC)c(OC)c(OC)c3o2)c1` yielded a TGI greater than 100 µM.

For the next test, the system named is UO-31 renal. Kind of test: DTP human tumour cell line panel, 48 h.
In general, GI50 refers to the concentration giving 50% growth inhibition. On to `CCN1CCN(c2nc(C)cc(N(CCNc3ccnc4cc(Cl)ccc34)Cc3ccc4c(c3)OCO4)n2)CC1`, for which the GI50 is 1.36 µM and the TGI worked out at 2.72 µM.
For `COc1c(Cl)c(=O)oc2ccc(Cl)cc12`, the TGI was greater than 100 µM.
Turning to `NS(=O)(=O)c1cc(Br)c(N=Nc2ccc(O)c3ncccc23)c(Br)c1`, the TGI worked out at 89.6 µM.
As for `Cc1cc(I)cc(CN(C)CCCN2CCCCC2)c1O`, the GI50 is 11.8 µM and the TGI worked out at 31.1 µM.
`COc1cc(NCc2ccc3oc(=O)c(-c4ccccc4)nc3c2)cc(OC)c1OC` came in with a TGI greater than 10 µM.
As to `CN(C(=O)c1ccc(C(F)(F)F)cc1)c1ccc(Oc2ccc3c(c2)cc(C(=O)N2CCN(Cc4ccc(OC(F)F)cc4)CC2)n3C)nc1`, the GI50 is 4.22 µM and the TGI is greater than 100 µM.
Take `O=S(=O)(CCn1c(Sc2ccccc2)c(Sc2ccccc2)c2ccccc21)c1ccccc1`: the TGI is greater than 100 µM.
In turn, `O=c1[nH]c(Nc2nc3ccccc3[nH]2)nc(O)c1-c1ccccc1` displayed a TGI greater than 100 µM.
With `Cc1ccccc1S(=O)(=O)OC1NS(=O)(=O)c2ccccc21` (centres undefined), the TGI is greater than 100 µM.
On to `O=C(Nc1ccc(Cl)cc1)c1cccc(NC2=C(Cl)C(=O)N(Cc3ccccc3)C2=O)c1`, for which the GI50 was 13 µM and the TGI was determined as 30.4 µM.
Taken in the same sequence, the figures for `Nc1ncnc2n[nH]c(Nc3ccc(F)cc3)c12` were 5.93 µM and greater than 100 µM.
Regarding `CCN(CC)c1ccc(-c2cc(-c3cc(OC)c(OC)c(OC)c3)nc(N3CCOCC3)c2C#N)cc1`, the GI50 was 2.99 µM and the total growth inhibition concentration (TGI) is greater than 100 µM.
As for `CC(=O)OC1=CC(n2cc(F)c(=O)[nH]c2=O)OC(C)C1=O` (centres undefined), the concentration for total growth inhibition (TGI) was greater than 100 µM.
Take `CC(=O)[C@@]12O[C@@H]1CC1C3CCC4=CC(O)CCC4(C)C3CCC12C` (some centres undefined): the GI50 is greater than 100 µM and the TGI is greater than 100 µM.
In turn, `NC1(C(=O)OCc2ccccc2)CCCC1` gave a TGI of 43.3 µM. This counts as double-digit micromolar.
Take `Cc1cc(/C=C/c2ccc3cc(N(C)C)ccc3[n+]2C)c(C)n1-c1ccccc1`: the GI50 is 0.748 µM and the TGI came out at 4.3 µM.
For `Cn1cnc([N+](=O)[O-])c1S(=O)(=O)Oc1cccc2ccccc12` the same measures were 1.4 µM and 4.33 µM.
Consider `CCCC(=O)OC1CC(n2cc(F)c(=O)[nH]c2=O)OC1COP(=O)(OCC(Cl)(Cl)Cl)OCC(Cl)(Cl)Cl` (centres undefined), for which the TGI was greater than 100 µM.
Take `COc1cc(OC)cc(-c2cc(=O)c3c(OC)c(OC)c(OC)c(OC)c3o2)c1`: the TGI is greater than 100 µM.

The next test concerns SR leukemia. Kind of test: DTP human tumour cell line panel, 48 h.
`CCN1CCN(c2nc(C)cc(N(CCNc3ccnc4cc(Cl)ccc34)Cc3ccc4c(c3)OCO4)n2)CC1`: the GI50 is 1.33 µM and the concentration for total growth inhibition (TGI) worked out at 3.71 µM.
`COc1c(Cl)c(=O)oc2ccc(Cl)cc12` yielded a TGI greater than 100 µM.
`NS(=O)(=O)c1cc(Br)c(N=Nc2ccc(O)c3ncccc23)c(Br)c1`: the concentration for total growth inhibition (TGI) is greater than 100 µM.
Still for that read-out and setting: then `Cc1cc(I)cc(CN(C)CCCN2CCCCC2)c1O`, with 3.57 µM.
The compound `COc1cc(NCc2ccc3oc(=O)c(-c4ccccc4)nc3c2)cc(OC)c1OC` returned a TGI greater than 10 µM.
`CN(C(=O)c1ccc(C(F)(F)F)cc1)c1ccc(Oc2ccc3c(c2)cc(C(=O)N2CCN(Cc4ccc(OC(F)F)cc4)CC2)n3C)nc1`: the GI50 was less than 0.01 µM and the TGI is greater than 100 µM.
`O=S(=O)(CCn1c(Sc2ccccc2)c(Sc2ccccc2)c2ccccc21)c1ccccc1` came in with a TGI greater than 100 µM.
`O=c1[nH]c(Nc2nc3ccccc3[nH]2)nc(O)c1-c1ccccc1` returned a TGI greater than 100 µM.
As to `Cc1ccccc1S(=O)(=O)OC1NS(=O)(=O)c2ccccc21` (centres undefined), the TGI was greater than 100 µM.
On to `O=C(Nc1ccc(Cl)cc1)c1cccc(NC2=C(Cl)C(=O)N(Cc3ccccc3)C2=O)c1`, for which the GI50 was 3.56 µM and the TGI worked out at 14.9 µM.
As to `Nc1ncnc2n[nH]c(Nc3ccc(F)cc3)c12`, the GI50 is 13.3 µM and the TGI came out at 94.6 µM.
As for `CCN(CC)c1ccc(-c2cc(-c3cc(OC)c(OC)c(OC)c3)nc(N3CCOCC3)c2C#N)cc1`, the GI50 was 0.163 µM and the TGI turned out to be 0.672 µM.
`CC(=O)OC1=CC(n2cc(F)c(=O)[nH]c2=O)OC(C)C1=O` (centres undefined) came in with a TGI greater than 100 µM.
As to `CC(=O)[C@@]12O[C@@H]1CC1C3CCC4=CC(O)CCC4(C)C3CCC12C` (some centres undefined), the GI50 was greater than 100 µM and the TGI is greater than 100 µM.
Regarding `NC1(C(=O)OCc2ccccc2)CCCC1`, the TGI was greater than 100 µM.
Take `Cc1cc(/C=C/c2ccc3cc(N(C)C)ccc3[n+]2C)c(C)n1-c1ccccc1`: the GI50 was 0.0442 µM and the TGI was 1.42 µM.
As for `Cn1cnc([N+](=O)[O-])c1S(=O)(=O)Oc1cccc2ccccc12`, the GI50 was 1.74 µM and the TGI was 4.57 µM.
As to `CCCC(=O)OC1CC(n2cc(F)c(=O)[nH]c2=O)OC1COP(=O)(OCC(Cl)(Cl)Cl)OCC(Cl)(Cl)Cl` (centres undefined), the TGI was 99.4 µM.
In turn, `COc1cc(OC)cc(-c2cc(=O)c3c(OC)c(OC)c(OC)c(OC)c3o2)c1` returned a TGI greater than 100 µM.

In another test the test system is SW-620 colon. The test can be described thus: DTP human tumour cell line panel, 48 h.
Regarding `CCN1CCN(c2nc(C)cc(N(CCNc3ccnc4cc(Cl)ccc34)Cc3ccc4c(c3)OCO4)n2)CC1`, the GI50 is 1.62 µM and the TGI was determined as 3.55 µM.
The compound `COc1c(Cl)c(=O)oc2ccc(Cl)cc12` yielded a TGI greater than 100 µM.
Compound `NS(=O)(=O)c1cc(Br)c(N=Nc2ccc(O)c3ncccc23)c(Br)c1` returned a TGI greater than 100 µM.
Take `Cc1cc(I)cc(CN(C)CCCN2CCCCC2)c1O`: the GI50 was 14.6 µM and the TGI was 27.7 µM.
With `COc1cc(NCc2ccc3oc(=O)c(-c4ccccc4)nc3c2)cc(OC)c1OC`, the total growth inhibition concentration (TGI) is greater than 10 µM.
For `CN(C(=O)c1ccc(C(F)(F)F)cc1)c1ccc(Oc2ccc3c(c2)cc(C(=O)N2CCN(Cc4ccc(OC(F)F)cc4)CC2)n3C)nc1`, the GI50 is 98.2 µM and the TGI was greater than 100 µM.
`O=S(=O)(CCn1c(Sc2ccccc2)c(Sc2ccccc2)c2ccccc21)c1ccccc1` gave a TGI greater than 100 µM.
In turn, `O=c1[nH]c(Nc2nc3ccccc3[nH]2)nc(O)c1-c1ccccc1` yielded a concentration for total growth inhibition (TGI) greater than 100 µM.
For `Cc1ccccc1S(=O)(=O)OC1NS(=O)(=O)c2ccccc21` (centres undefined), the TGI is greater than 100 µM.

(Values after PubChem BioAssay (NCI).)
